Reference: ChEMBL document CHEMBL3286240, “Inhibition of Enterococcus faecalis biofilm formation by highly active lactones and lactams analogues of rubrolides” (Eur J Med Chem, 2014)
≈ marks a conversion by molar mass, not a printed value.

What was measured:
[1] = test system: Enterococcus faecalis; test: Antimicrobial activity against Enterococcus faecalis assessed as bacterial growth at 21.9 ug/ml after 20 hrs by microtiter plate assay; type: functional
[2] = test system: Enterococcus faecalis; test: Antimicrobial activity against Enterococcus faecalis assessed as bacterial growth at 0.68 ug/ml after 20 hrs by microtiter plate assay; type: functional
[3] = test system: Enterococcus faecalis; test: Antimicrobial activity against Enterococcus faecalis assessed as bacterial growth at 1.37 ug/ml after 20 hrs by microtiter plate assay; type: functional
[4] = test system: Enterococcus faecalis; test: Antimicrobial activity against Enterococcus faecalis assessed as bacterial growth at 5.5 ug/ml after 20 hrs by microtiter plate assay; type: functional
[5] = test system: Enterococcus faecalis; test: Antimicrobial activity against Enterococcus faecalis assessed as bacterial growth at 0.34 ug/ml after 20 hrs by microtiter plate assay; type: functional
[6] = test system: Enterococcus faecalis; test: Antimicrobial activity against Enterococcus faecalis assessed as bacterial growth at 87.5 ug/ml after 20 hrs by microtiter plate assay; type: functional
[7] = test system: Enterococcus faecalis; test: Antimicrobial activity against Enterococcus faecalis assessed as inhibition of biofilm formation after 20 hrs by crystal violet staining analysis; type: functional, organism-based
[8] = test system: Enterococcus faecalis; test: Antimicrobial activity against Enterococcus faecalis assessed as bacterial growth at 10.9 ug/ml after 20 hrs by microtiter plate assay; type: functional
[9] = test system: Enterococcus faecalis; test: Antimicrobial activity against Enterococcus faecalis assessed as bacterial growth at 0.17 ug/ml after 20 hrs by microtiter plate assay; type: functional
[10] = test system: Enterococcus faecalis; test: Antimicrobial activity against Enterococcus faecalis assessed as bacterial growth at 2.73 ug/ml after 20 hrs by microtiter plate assay; type: functional
[11] = test system: Enterococcus faecalis; test: Antimicrobial activity against Enterococcus faecalis assessed as bacterial growth at 43.8 ug/ml after 20 hrs by microtiter plate assay; type: functional

SMILES | Activity [1] [%] | Activity [2] [%] | Activity [3] [%] | Activity [4] [%] | Activity [5] [%] | Activity [6] [%] | IC50 [7] [µg/mL] | Activity [8] [%] | Activity [9] [%] | Activity [10] [%] | Activity [11] [%]
COc1ccc(C)cc1C1=C(Br)C(=O)O/C1=C\c1cccc(Cl)c1 | 19.4 | -4.7 | 9.1 | 17.4 | -7.9 | 55.8 | 1.51 (≈ 3.72 µM) | 17.7 | -6.4 | 9.8 | 39.6
COc1ccc(C)cc1C1=C(Br)C(=O)N(CC(C)C)/C1=C\c1ccccc1Cl | 52.2 | 6.9 | 24.6 | 41.9 | -7.4 | 95.3 | 1.09 (≈ 2.37 µM) | 45.1 | -4.2 | 33 | 62.1
COc1cccc(/C=C2\OC(=O)C(Br)=C2c2cc(Cl)ccc2OC)c1 | 19.7 | -5.6 | 0.3 | 9.7 | -4.1 | 40.5 | 53.1 (≈ 126 µM) | 9.2 | -1.5 | 11.8 | 24.1
COc1ccc(Cl)cc1C1=C(Br)C(=O)N(CC(C)C)/C1=C/c1ccccc1Br | 32.4 | 9.1 | 19.2 | 43.4 | 7.4 | 60.9 | 0.76 (≈ 1.45 µM) | 42.7 | 0.5 | 33.3 | 43.4
COc1ccc(Br)cc1C1=C(Br)C(=O)N(CC(C)C)C1(O)Cc1cccc(Cl)c1 (stereo not given) | 9.3 | -0.8 | 1.3 | -2.1 | -4.7 | 48.7 | > 87.5 | 6.5 | 1.3 | -4.4 | 30.3
